Source: US20100008912A1, “COMBINATION DRUG” (TAKEDA PHARMACEUTICAL COMPANY LIMITED, priority 2006, published 2010)
Where a name gives a salt, the structure may show the parent alone.

Assays:
N87 (gastric cancer) = assay: Cell growth determination test of combined use, Combination Index, N87; assay type: cell-based, human; conditions: combined use with compound A
Protocol: (§1) The cell density of the cell suspension was measured by cell counter Sysmex CDA500, and the cell density was adjusted to 4×10^4 cell/mL using the aforementioned medium, which was dispensed to each well of a 96 well multi-well culture plate (Nunc) by 0.15 mL and cultured overnight at 37° C., 5% CO2. […] After culturing at 37° C., 5% CO2 for 5 days, the cells of each well were fixed, stained and subjected to colorimetry. The effect of the combined use was determined by the method of Chou T C, Talalay P Adv.
(§2) The effect of combined use was determined by the method of Chou T C, Talalay P Adv.

OE19 (esophageal cancer) = assay: Cell growth determination test of combined use, Combination Index, OE19; assay type: cell-based, human; conditions: combined use with compound A
Protocol: as §1, §2

[1] = tested on: Human breast cancer cell line BT-474; assay: Cell growth test of combined use, Combination Index by the method of Chou and Talalay, BT-474; assay type: cell-based; conditions: for Combination Index at the time of inhibition of cell growth by 50%: combined use with compound A, BT-474
Protocol: as §1, §2

Calu3 (lung cancer) = assay: Cell growth determination test of combined use, Combination Index, Calu3; assay type: cell-based, human; conditions: combined use with compound A; Calu-3
Protocol: (§3) Human breast cancer cell line BT-474 (ATCC (American Type Culture Collection) catalog No. HTB-20, Lasfargues E Y, In Vitro 15:723-729 (1979)), which is a passage cultured HER2 high expressing cell, was treated with trypsin and suspended in RPMI-1640 medium (GibcoInvitrogen) containing 10% bovine fetus serum (GibcoInvitrogen). The cell density of the cell suspension was measured by cell counter Sysmex CDA500, and the cell density was adjusted to 4×10^4 cell/mL using the aforementioned medium, which was dispensed to each well of a 96 well multi-well culture plate (Nunc) by 0.15 mL and cultured overnight at 37° C., 5% CO2. Thereto was added a medium containing compound A 40-200 nmol/L at a given concentration, a medium containing trastuzumab (Herceptin (trademark) (Genentech, Inc.) catalog No. NDC 50242-134-68, 79-400 ng/mL) at a given concentration, or a medium containing compound A 40-200 nmol/L and trastuzumab 79-400 ng/mL at a given concentration. […] The effect of the combined use was determined by the method of Chou T C, Talalay P Adv. […]
(§4) HER2 high expressing human cancer cell lines, BT-474 (breast cancer), N87 (gastric cancer), Calu3 (lung cancer) and OE19 (esophageal cancer), were purchased from ATCC and used for the experiments. […] The effect of combined use was determined by the method of Chou T C, Talalay P Adv.

[2] = tested on: Human breast cancer cell line BT-474; assay: Cell growth inhibitory assay, SRB staining method, BT-474; assay type: cell-based; conditions: in vitro; serially diluted; 5 days; BT-474 (FIG. 7)
Protocol: (§5) Human breast cancer cell line BT-474 was treated with trypsin and suspended in RPMI 1640 medium (Invitrogen) containing 10% bovine fetus serum (Invitrogen). BT-474 cell was plated on a 96 well plate at 6000 cells/100 μL/well. The next day, fulvestrant alone, compound A alone or a mixture of fulvestrant and compound A was serially diluted and added. After addition of the compound, the mixture was stood in a CO2 incubator for 5 days. 50 μL of 25% glutaraldehyde solution (Wako) was added to 200 μL of medium and the mixture was left standing at room temperature for 15 min. The plate was washed with PBS once, 200 μL of PBS was added, 25 μL of 50% trichloroacetic acid was added, and the mixture was left standing at 4° C. for 1 hr or longer. The plate was washed 5 times with tap water, redundant water was removed by slamming the plate against Kimtowel. 50 μL of 0.4% (w/v) Sulforhodamine B (SRB, Sigma)-containing 1% (v/v) acetic acid solution was added to each well and, 15 min later, the plate was washed 3 times with 1% acetic acid solution (v/v). The plate was thoroughly dried, 10 mM Tris solution was added, and the mixture was stirred well with a plate shaker, and the absorbance at 550 nm was measured (Bio-Rad, Benchmark Plus). In calculation, a control free of a drug was 100% (FIG. 7).

[3] = tested on: HER2 high expressing clinical gastric cancer cell line (4-1ST); assay: Tumor growth of 4-1ST tumor pieces transplanted subcutaneously in nude mouse, combined use; assay type: in vivo
Text: A tumor mass of 4-1ST (obtained from Central Institute for Experimental Animals), which was HER2 high expressing clinical gastric cancer cell line transplanted and passaged in vivo in nude mouse, was recovered from nude mouse, aseptically cut into 2 to 3 mm square pieces. The above-mentioned tumor piece was fixed on a trocar transplantation tool and transplanted subcutaneously into the abdomen of nude mouse. As a nude mouse for transplantation, BALB/cAJc l-nu/nu, female, 5-week-old mice were purchased from CLEA Japan, Inc. After 1 week of acclimation on receipt of the mice, the tumor piece was transplanted subcutaneously into the abdomen of 6-week-old mouse. The tumor volume was measured over time from 2 weeks after the transplantation and the mouse with a tumor volume of from 200 to 300 mm^3 was used for the test. Compound A was adjusted to a concentration of 10 mg/mL with 0.5% aqueous methylcellulose solution, and orally administered to mouse at a liquid amount of the above-mentioned compound A suspension of 10 mL/kg body weight. Compound A was administered twice a day in the morning and in the afternoon (administration interval was 7 hr or more) for 14 consecutive days. As for trastuzumab (Herceptin (trademark) (Genentech, Inc.) catalog No. NDC 50242-134-68), undiluted solution (21 mg/mL) was diluted to 1 mg/mL with saline, and intraperitoneally administered at a liquid amount of 10 mL/kg body weight. Trastuzumab was administered twice a week, totaling 4 times. The tumor volume was measured every 2 or 3 days, and the final tumor volume was measured on the next day of the completion of the 14 day administration and the effect of combined use was determined (FIG. 3). […] As for cetuximab (Erbitux (trademark)), undiluted solution (2 mg/mL) was intraperitoneally administered at a liquid amount of 10 mL/kg body weight. […] The tumor volume was measured every 2 or 3 days, and the final tumor volume was measured on the next day of the completion of the 14 day administration and the effect of combined use was determined (FIG. 4).

[4] = tested on: Human breast cancer cell line MCF-7; assay: Cell growth inhibitory assay, SRB staining method, MCF-7; assay type: cell-based; conditions: in vitro; serially diluted; 4 days; MCF-7 (FIG. 8)
Protocol: Human breast cancer cell line MCF-7 cell was plated on a 96 well plate at 3000 cells/100 μL/well. The next day, fulvestrant alone, compound A alone or a mixture of fulvestrant and compound A was serially diluted and added.
as §5, with “After” for “Human breast cancer cell line BT-474 was treated with trypsin and suspended in RPMI 1640 medium (Invitrogen) containing 10% bovine fetus serum (Invitrogen). BT-474 cell was plated on a 96 well plate at 6000 cells/100 μL/well. The next day, fulvestrant alone, compound A alone or a mixture of fulvestrant and compound A was serially diluted and added. After”, “for 4” for “for 5”, “(FIG. 8).” for “(FIG. 7).”

[5] = tested on: Human breast cancer cell line BT-474 (HER2 high expressing); assay: Tumor growth of BT-474 transplanted subcutaneously in nude mouse, combined use; assay type: in vivo; conditions: compound A 10 mg/mL, 10 mL/kg orally twice a day, 14 days, 10 mL/kg intraperitoneally twice a week
Protocol: (§6) Human breast cancer cell line BT-474 (ATCC (American Type Culture Collection) catalog No. HTB-20, Lasfargues E Y, In Vitro 15:723-729 (1979)), which is a passage cultured HER2 high expressing cell, was treated with trypsin and suspended in RPMI-1640 medium (GibcoInvitrogen) containing 10% bovine fetus serum (GibcoInvitrogen).
as §6

[6] = tested on: HER family genes (EGFR, HER2, HER3, HER4) in MCF-7 cell; assay: HER family gene expression (TaqMan PCR) in MCF-7; assay type: cell-based, human
Protocol: MCF-7 cell was plated on a 6 well plate at 8.6×10^4 cells/well. The next day, the cells were treated with compound A (1 μM), fulvestrant (1 μM) or compound A (1 μM)+fulvestrant (1 μM). After 120 hr, total RNA was extracted using an RNeasy mini kit (Qiagen). 1 μg of total RNA was subjected to a Reverse Transcriptase reaction using a high capacity cDNA archive kit (P/N 4322171, Applied Biosystems) to give cDNA. The obtained cDNA was diluted 50-fold with Nuclease Free water (Promega), and 5 μL thereof was used for PCR reaction. 2×TaqMan Universal PCR Master Mix (12.5 μL) and 20×Probe & Primer (TaqMan Gene Expression Assays, 1.25 μL) and Nuclease Free water (6.25 μL) were blended. PCR reaction and analysis were performed using GeneAmp 7700 (Applied Biosystems). The reaction conditions were 50° C.×2 min, 95° C.×10 min, followed by 95° C.×15 sec, 60° C.×1 min, which cycle was repeated 40 times. For data analysis, calculation was made with GAPDH as an internal control and according to ? Ct method

[7] = tested on: HER2 high expressing cancer cells (BT-474, N87, Calu3, OE19); assay: Cell growth determination test of combined use, summary over the four cell lines; assay type: cell-based, human; conditions: in vitro; summary of Table 1
Protocol: as §3, §4

O=c1[nH]cc(F)c(=O)[nH]1 [Compound 5FU, 5FU]
Combination Index at the time of inhibition of cell growth by 50% (N87 (gastric cancer)): 0.95
Combination Index at the time of inhibition of cell growth by 50% (OE19 (esophageal cancer)): 1.43

COc1cccc2c1C(=O)c1c(O)c3c(c(O)c1C2=O)C[C@@](O)(C(=O)CO)C[C@@H]3O[C@H]1C[C@H](N)[C@H](O)[C@H](C)O1 [doxorubicin hydrochloride]
Combination Index at the time of inhibition of cell growth by 50% [1]: 1.65
Combination Index at the time of inhibition of cell growth by 50% (OE19 (esophageal cancer)): 0.96
Combination Index at the time of inhibition of cell growth by 50% (Calu3 (lung cancer)): 1.39

CCc1c2c(nc3ccc(OC(=O)N4CCC(N5CCCCC5)CC4)cc13)-c1cc3c(c(=O)n1C2)COC(=O)[C@]3(O)CC [irinotecan hydrochloride]
Combination Index at the time of inhibition of cell growth by 50% (N87 (gastric cancer)): 1.02
Combination Index at the time of inhibition of cell growth by 50% (OE19 (esophageal cancer)): 0.83

CC(C)(O)CC(=O)NCCn1ccc2ncnc(Nc3ccc(Oc4cccc(C(F)(F)F)c4)c(Cl)c3)c21 [Compound A, N-{2-[4-({3-chloro-4-[3-(trifluoromethyl)phenoxy]phenyl}amino)-5H-pyrrolo[3,2-d]pyrimidin-5-yl]ethyl}-3-hydroxy-3-methylbutanamide]
Cell growth inhibition by combined use of compound A and fulvestrant, compared to each alone [2]: stronger cell growth inhibitory action
Effect of combined use of compound A and erlotinib on tumor volume ([3]; compound A 10 mg/mL and erlotinib 2 mg/mL, each 10 mL/kg orally twice a day, 14 days (FIG. 5)): synergistic effect
Effect of combined use of compound A and cetuximab on tumor volume ([3]; compound A 10 mg/mL, 10 mL/kg orally twice a day, 14 days, cetuximab 2 mg/mL, 10 mL/kg intraperitoneally twice a week, 4 times (FIG. 4)): synergistic effect
Effect of combined use of compound A and trastuzumab on tumor volume ([3]; compound A 10 mg/mL, 10 mL/kg orally twice a day, 14 days, trastuzumab 1 mg/mL, 10 mL/kg intraperitoneally twice a week, 4 times (FIG. 3)): synergistic effect
Cell growth inhibition by combined use of compound A and fulvestrant, compared to each alone [4]: stronger cell growth inhibitory action
Effect of combined use of compound A and paclitaxel on tumor volume, compared to each agent alone ([5]; paclitaxel 3 mg/mL, 4 times (FIG. 6)): stronger action
Effect of combined use of compound A and trastuzumab on tumor volume ([5]; trastuzumab 1 mg/mL, 4 times, two-way analysis of variance (FIG. 2)): synergistic effect
Action on HER signal ([6]; compound A 1 μM alone or + fulvestrant 1 μM, 120 hr (FIG. 9)): HER signal blocking action
Effect of combined use of compound A and trastuzumab on cell growth ([1]; in vitro, compound A 40-200 nmol/L + trastuzumab 79-400 ng/mL, 5 days, Combination Index vs Fraction affected (FIG. 1)): synergistic effect
Effect of combined use of compound A and chemotherapeutic agents on cell growth [7]: additive effect

CC(=O)O[C@@]12CO[C@@H]1C[C@H](O)[C@@]1(C)C(=O)[C@H](O)C3=C(C)[C@@H](OC(=O)[C@H](O)[C@@H](NC(=O)OC(C)(C)C)c4ccccc4)C[C@@](O)([C@@H](OC(=O)c4ccccc4)[C@H]21)C3(C)C [docetaxel]
Combination Index at the time of inhibition of cell growth by 50% [1]: 1.10
Combination Index at the time of inhibition of cell growth by 50% (N87 (gastric cancer)): 0.57
Combination Index at the time of inhibition of cell growth by 50% (OE19 (esophageal cancer)): 0.94

C[C@]12CC[C@@H]3c4ccc(O)cc4C[C@@H](CCCCCCCCC[S+]([O-])CCCC(F)(F)C(F)(F)F)[C@H]3[C@@H]1CC[C@@H]2O (stereo partly drawn) [fulvestrant]
HER family gene expression (EGFR, HER2, HER3, HER4), control group = 1 ([6]; 1 μM, 120 hr, GAPDH as internal control (FIG. 9)): increase
